# System: Math1-estrogen receptor (ER) fusion protein
# Assay: Tamoxifen-inducible Math1-estrogen receptor (ER) fusion construct in transfected cells
# Type: cell-based
# Conditions: addition of tamoxifen to the transfected cells
# From the text: This Example describes a system in which administration of tamoxifen, a […], induces expression of Math1. A Math1-estrogen receptor (ER) fusion protein, where the ER has been mutated so that it selectively binds to tamoxifen rather than estrogen, is constitutively expressed. In the absence of tamoxifen, the Math1-ER construct remains quiescent within the cytosol where it is inactivated by heat shock proteins. […] The sequence of Math1 is given above.
compound,measurement,value
CC/C(=C(\c1ccccc1)c1ccc(OCCN(C)C)cc1)c1ccccc1 [tamoxifen],localization of the Math1-ER construct to the nucleus,dose-dependent localization of the Math1-ER construct to the nucleus

# Source: US20190233796A1, “Generation of Inner Ear Cells” (Massachusetts Eye & Ear Infirmary, priority 2006, published 2019)
